Drawing on PubChem BioAssay AID1013 (Columbia University Molecular Screening Center, 2008), this text covers inhibition and cell count for 87 compounds.

By inhibition is commonly meant the drop in the measured response relative to a control, in per cent.

Active and inactive are the calls of the source. No rule for the calls is given here.

A short description of one assay: blockers of VCAM1 upregulation by TNFa – imaging, TNFa stimulus, retest and dose response, confirmation (AID 1013).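 As to cell count: compound on cells 1 h before TNFa then 24 h more.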 The note with it: TNFa-stimulated cells, VCAM1 expression imaging; at 2 µM; stronger effect = higher value.
In the case of `O=C(NCc1ccco1)C1CC(=O)N(c2ccc(F)cc2)C1` (configuration not stated), the inhibition was 6% (inactive).

For `c1ccc(-c2nnc(CSc3nncs3)o2)cc1`, the inhibition is -12% (inactive).

For the compound `Cc1noc(C)c1S(=O)(=O)N1CCC2(CC1)OCCO2`, the inhibition was 7.1% (inactive).

On to `CCOC(=O)c1cnc(-n2nc(C)cc2C)nc1N1CCOCC1`, for which the inhibition was 0.6% (inactive).

For the compound `Cc1oc(-c2ccc(Cl)cc2)cc1-c1nn2c(-c3ccoc3C)nnc2s1`, the inhibition is -0.1% (inactive).

As for `CCOC(=O)c1ccc(NC(=O)CCNc2c(N3CCCC3)c(=O)c2=O)cc1`, the inhibition is -10.3% (inactive).

As for `O=C1C(Cc2ccccc2)NC(=S)N1c1ccccc1` (configuration not stated), the inhibition was 9.6% (inactive).

Regarding `Cc1nc2ccccc2n1CCCOc1ccccc1`, the inhibition is -0.7% (inactive).

On to `O=C(N/N=C/c1ccc[nH]1)c1sc2ccccc2c1Cl`, for which the inhibition was 13.1% (inactive).

With `CCCc1[nH]nc2c1C(c1cccnc1)C(C#N)=C(N)O2` (configuration not stated), the inhibition was -7.9% (inactive).

`COc1ccc(Cn2c(CCC(=O)O)nc3cccnc32)cc1`: the inhibition was 1.7% (inactive).

Regarding `O=C(CS(=O)c1ccc(C(F)(F)F)cc1[N+](=O)[O-])Oc1ccccc1` (configuration not stated), the inhibition is 56.9% (inactive).

Turning to `O=C(Nc1ncc2c(n1)CC(c1ccco1)CC2=O)c1ccc(Cl)cc1` (configuration not stated), the inhibition was -0.3% (inactive).

On to `O=C(c1ccc2snnc2c1)N1CCSCC1`, for which the inhibition was 8.5% (inactive).

Turning to `CCOC(=O)c1ccc(N2C(=O)CC(N3CCC(O)(c4ccc(Br)cc4)CC3)C2=O)cc1` (configuration not stated), the inhibition is -13.9% (inactive).

Take `CCC(C)C1C(C#N)=C(N)Oc2n[nH]c(-c3ccccc3)c21` (configuration not stated): the inhibition was -12.6% (inactive).

On to `CCC(=O)Nc1cccc(NC(=O)c2cc3ccccc3o2)c1`, for which the inhibition was -3.1% (inactive).

`CCOC1=NC(C(=O)O)c2ccccc2/C(=C(/C)Cl)N1` (configuration not stated): the inhibition was 7.8% (inactive).

Turning to `CCOC(=O)Cc1cc(-c2ccc(O)cc2)nc2ccc3ccccc3c12`, the inhibition is 35.9% (inactive).

For the compound `CCOc1ccc(C2/C(=C(\O)c3c(C)[nH]c(C(=O)OC)c3C)C(=O)C(=O)N2CCN(C)C)cc1` (configuration not stated), the inhibition is -5.6% (inactive).

As to `Cc1nnc(SCc2cn3ccsc3n2)n(N)c1=O`, the inhibition is -9.6% (inactive).

For the compound `Cc1cc(C)n(-c2nc(-c3cccc(Cl)c3)cs2)n1`, the inhibition is 2.2% (inactive).

As for `Cc1cccc(N(CC(=O)N/N=C/c2ccc(OCC(=O)NCc3ccco3)cc2)S(C)(=O)=O)c1C`, the inhibition was -4.7% (inactive).

Consider `C=CCc1ccccc1OCC(O)CNC` (configuration not stated), for which the inhibition was 5.5% (inactive).

Turning to `Cn1c(NC(=O)C2c3ccccc3Oc3ccccc32)cc(=O)n(C)c1=O`, the inhibition was -2.7% (inactive).

Consider `COc1ccc(CN2C(=O)[C@@H]3C(c4ccc(F)cc4)=NO[C@@H]3C2=O)cc1`, for which the inhibition is -6.1% (inactive).

As for `CC(=O)c1cccc(Nc2nc(-c3cccc([N+](=O)[O-])c3)cs2)c1`, the inhibition is 9.3% (inactive).

Consider `O=C(O)c1cccc(S(=O)(=O)Nc2ccccc2Cl)c1`, for which the inhibition was -5.6% (inactive).

On to `N/C(Cc1cccs1)=N\OC(=O)COc1ccc(Br)cc1Cl`, for which the inhibition was 8.2% (inactive).

On to `CCOC(=O)c1ccc(NC(=O)Cn2nnc(-c3ccccc3)n2)cc1`, for which the inhibition is -10% (inactive).

Take `CCCc1cc(=O)[nH]c(SCC(=O)Nc2nonc2N)n1`: the inhibition was 9.8% (inactive).

On to `CSc1nc2sc(-c3ccccc3)cc2c(=O)n1N`, for which the inhibition is 8.1% (inactive).

`COc1ccc(CSc2nc3ccccc3[nH]2)cc1`: the inhibition was -2.5% (inactive).

As for `CCn1c(=O)cc(OCC(=O)NCc2ccco2)c2ccccc21`, the inhibition is -6.7% (inactive).

For `CC1(C)Cc2c(oc3ncn4ncnc4c23)CO1`, the inhibition is -8% (inactive).

As to `Cc1nc(NC(C)C)c2oc3ccccc3c2n1`, the inhibition is 18.8% (inactive).

For the compound `CCOC(=O)c1cnn(-c2nc3c(C)cccc3s2)c1C`, the inhibition is 11% (inactive).

On to `CCNC(=O)CCn1nc(-c2ccc(Cl)cc2)c2ccccc2c1=O`, for which the inhibition was -0.3% (inactive).

On to `CCOC(=O)C1C(=O)NC(N2CCCCC2)=NC1c1ccco1` (configuration not stated), for which the inhibition is -0.9% (inactive).

As to `COc1cccc(C(=O)COc2cccc(NC(=O)c3cccc([N+](=O)[O-])c3)c2)c1`, the inhibition was 1.6% (inactive).

Take `CCCCOCCCNC(=O)c1cccs1`: the inhibition is -15.4% (inactive).

Regarding `Cc1cc(NC(=O)NC(=O)c2cccc(OC(F)(F)C(F)F)c2)n[nH]1`, the inhibition is 3.8% (inactive).

Turning to `CCOc1ccccc1/C=N/Nc1ccccc1[N+](=O)[O-]`, the inhibition is 5.1% (inactive).

Take `O=c1c2ccccc2nnn1CSc1ncnc2ccccc12`: the inhibition was 15.2% (inactive).

With `CN(Cc1ccccc1)S(=O)(=O)c1ccc(NC(=S)NC(=O)C2CCCC2)cc1`, the inhibition was 17.2% (inactive).

For the compound `CN1C(=O)N(C)C(=O)C2(Cc3ccccc3N3CCOCC32)C1=O` (configuration not stated), the inhibition is 6.4% (inactive).

In the case of `Cn1c(CNc2ccccc2O)nc2ccccc21`, the inhibition is 11.9% (inactive).

On to `O=S(=O)(c1ccc2c(c1)OCCCO2)N1CCNCC1`, for which the inhibition is 0.5% (inactive).

With `Cc1cc(C)n(C(=O)c2ccc(NC(=O)C3COc4ccccc4O3)cc2)n1` (configuration not stated), the inhibition was 3.2% (inactive).

Take `CC1Oc2ccccc2C=C1/C=C1/SC(N2CCOCC2)=NC1=O` (configuration not stated): the inhibition is -2.1% (inactive).

As to `COc1ccccc1-n1cnc2cc(NCc3cccs3)ccc21`, the inhibition was -3.5% (inactive).

For `Cc1cc(N2CCOCC2)c2c(N)c(C)cc(C)c2n1`, the inhibition was -11% (inactive).

As to `COc1ccc(CC(=O)OCc2cc3ccc(C)cc3[nH]c2=O)cc1`, the inhibition was 6.4% (inactive).

In the case of `COc1ccc(CCN(Cc2cc3cccc(C)c3[nH]c2=O)C(=O)N2CCCC2)cc1OC`, the inhibition was 5.6% (inactive).

On to `O=C(NC(NC1CCS(=O)(=O)C1)C(=O)c1cccs1)c1ccccc1` (configuration not stated), for which the inhibition is 9.9% (inactive).

For `COc1cccc(/C=N/Nc2nc(Nc3ccccc3)nc(-n3nc(C)cc3C)n2)c1O`, the inhibition is -11.8% (inactive).

Take `Cc1ccc(S(=O)(=O)Nc2cc(C(=O)NCCN3CCCC3)ccc2N2CCCCC2)cc1`: the inhibition is -2.2% (inactive).

On to `CCN1C(=O)CSC1=NC12CC3CC(CC(C3)C1)C2`, for which the inhibition was -5.9% (inactive).

For the compound `Cc1nc([N+](=O)[O-])c(Br)n1CC(=O)c1ccc(Br)cc1`, the inhibition is 27% (inactive).

Take `NC(=O)COC(=O)CCCc1c[nH]c2ccccc12`: the inhibition was 0.5% (inactive).

Take `CCn1c(SCC(=O)Nc2ccc(C(=O)OC)cc2)nnc1-c1cccs1`: the inhibition was 10.1% (inactive).

With `COc1ccccc1C(=O)Nc1ccc2c(c1)nc(CN1CCN(C(C)=O)CC1)n2C`, the inhibition is 0.2% (inactive).

Turning to `CCN1CCC2(CC1)C(C#N)=C(N)Oc1c2sc2nc(C)cc(C)c12`, the inhibition was -4.5% (inactive).

For the compound `CSc1nc2nccc(-c3ccc(Oc4ccccc4)cc3)n2n1`, the inhibition was -5.9% (inactive).

In the case of `CCOC(=O)c1oc2ccccc2c1NC(=O)Cc1cccs1`, the inhibition was -16.8% (inactive).

On to `O=C(O)C1CC=CCC1C(=O)N1CCCC1` (configuration not stated), for which the inhibition was -1.4% (inactive).

On to `CC(C)Sc1nc2c(c(=O)n1-c1ccc(F)cc1)SCC2`, for which the inhibition is 7.4% (inactive).

As for `Cc1ccc(C)c(NC(=S)NC(NC(=O)Cc2cccc3ccccc23)C(Cl)(Cl)Cl)c1` (configuration not stated), the inhibition was 75.3% (inactive).

Turning to `CCNCC(O)COCC(O)CNCC` (configuration not stated), the inhibition is 1.3% (inactive).

`O=C(/C(=C/c1ccc(Cl)cc1)c1nc2ccccc2[nH]1)c1cccs1`: the inhibition was 32.1% (inactive).

Take `Cc1cc(C)n(-c2nc3ccccc3nc2N2CCN(C(=O)c3ccc(Cl)cc3)CC2)n1`: the inhibition was -5.2% (inactive).

For the compound `O=C(NCc1cccs1)c1nc2c(nnn2Cc2ccccc2Cl)c(=O)[nH]1`, the inhibition is 13.8% (inactive).

With `OCCN=C(c1ccccc1)C12CN3CN(CN(C3)C1)C2`, the inhibition is -1.2% (inactive).

In the case of `NCCN1CCN(CCN)CC1`, the inhibition is -8.3% (inactive).

Turning to `COc1cc(CC(=O)Nc2ncc(C)s2)cc(OC)c1OC`, the inhibition was -6.6% (inactive).

For `CC1=NNC(=O)/C1=C\c1cn(-c2ccccc2)nc1-c1ccc(Cl)cc1`, the inhibition was -15.6% (inactive).

Consider `CCOC(=O)Cc1csc(NC(=O)COc2ccc(N(C)S(=O)(=O)c3ccc(C)cc3)cc2)n1`, for which the inhibition was -1.3% (inactive).

Consider `COc1ccc2c(c1)CCc1c(C(=O)N3CC4(C)CC3CC(C)(C)C4)noc1-2` (configuration not stated), for which the inhibition is -14.4% (inactive).

Turning to `C/C(=N\Nc1nc2c(s1)CCCC2)c1ccccc1`, the inhibition was 3.8% (inactive).

Take `CCOc1ccccc1N1CCN(C(=O)c2cccc(-c3ccc(O)cc3)c2)CC1`: the inhibition is -6.4% (inactive).

Consider `CCCc1nnc(SCC(=O)O)n1/N=C/c1ccc2c(c1)OCO2`, for which the inhibition was -2% (inactive).

On to `COC(=O)c1cccc(S(=O)(=O)N(Cc2ccco2)Cc2cc3ccc(OC)cc3[nH]c2=O)c1`, for which the inhibition is -3.6% (inactive).

On to `CCCCN(C(=O)NC(=O)Nc1cccc(C)c1C)S(C)(=O)=O`, for which the inhibition is 9.3% (inactive).

For the compound `Cc1nc(S(=O)(=O)N(C)Cc2ccccc2)c(C#N)c(C)c1Cl`, the inhibition is 1.7% (inactive).

Regarding `COc1cc(NC(=O)CN2C(=O)NC(C)(CC(C)C)C2=O)cc(OC)c1` (configuration not stated), the inhibition is 11.6% (inactive).

For `N#Cc1cc2c(nc1SCC(=O)N1CCCCC1)CCCC2`, the inhibition is -5.8% (inactive).

Consider `COc1ccc(CN2CCCCC2C(=O)Nc2ccc(OC)c(OCC(C)C)c2)cc1OC` (configuration not stated), for which the inhibition was -5.8% (inactive).

The assay is the same for the next values; noted with them: TNFa-stimulated cells, VCAM1 expression imaging; cell count; at 10 µM; stronger effect = lower value.
`O=C(CS(=O)c1ccc(C(F)(F)F)cc1[N+](=O)[O-])Oc1ccccc1` (configuration not stated) came in with a cell count of 109%.

Compound `CCOC(=O)Cc1cc(-c2ccc(O)cc2)nc2ccc3ccccc3c12` had a cell count of 100%.

Compound `Cc1nc([N+](=O)[O-])c(Br)n1CC(=O)c1ccc(Br)cc1` gave a cell count of 116%.

With `Cc1ccc(C)c(NC(=S)NC(NC(=O)Cc2cccc3ccccc23)C(Cl)(Cl)Cl)c1` (configuration not stated), the cell count was determined as 99.3%.

In the case of `O=C(/C(=C/c1ccc(Cl)cc1)c1nc2ccccc2[nH]1)c1cccs1`, the cell count was found to be 83.7%.
